Laboratory results published in article PMC5983288, “The Maxi-K (BK) Channel Antagonist Penitrem A as a Novel Breast Cancer-Targeted Therapeutic” (Marine Drugs, 2018).
pIC50: −log10 of the molar value.

Experiments:
[1] = tested on: human neuronal Schwann cells CRL-2765; assay: MTT cell viability assay, Schwann CRL-2765; format: cell-based; details: CRL-2765, MTT, 48 h
Procedure: (§1) Penitrems were dissolved in dimethyl sulfoxide (DMSO) to provide a final 25 mM stock solution. Proper media were used to prepare penitrems at their final tested doses for each assay. […] The effects of penitrems 1–3 on the proliferation and growth of multiple BC cell lines were evaluated using MTT assay. MDA-MB-231, BT-474, and SK-BR-3 BC cells (ATCC, Manassas, VA, USA) were initially seeded at 1 × 10^4 cells/well (6 replicates/group) in 96-well plates in RPMI-1640 media containing 10% FBS, and allowed to attach overnight. The next day, cells were washed with PBS, divided into different treatment groups, and then given various concentrations of tested penitrems in 0.5% FBS containing media. Viable cell number was calculated after 48 h using the MTT assay.
(§2) To evaluate the effect of penitrems on growth of the human neuronal Schwann CRL 2765 (ATCC, Manassas, VA, USA), cells were plated at a density of 1 × 10^4 cell per well (6-wells/group) in 96-well culture plates using the ATCC-recommended media (Dulbecco’s Modified Eagle’s Medium, DMEM) and allowed to adhere overnight for growth studies, after which each treatment was added, and cells were maintained for 48 h. Similarly, the non-tumorigenic mammary epithelial MCF-12A cells were plated in DMEM/F12 supplemented with 5% horse serum, […], 20 ng/mL EGF, 100 U/mL penicillin, 0.1 mg/mL streptomycin, and […]. Next day, cells were divided into different groups and fed serum-free DMEM media supplemented with experimental treatments or vehicle-treated control media. Viable cell number was determined using the MTT colorimetric assay. The absorbance was measured at λ570 nm on a BioTek Synergy2 microplate reader (BioTek, Winooski, VT, USA). The number of cells per well was calculated against a standard curve prepared at the start of the experiment. The IC50 value for each tested sample was calculated by non-linear regression of log concentration versus the % survival, implemented in GraphPad® PRISM version 5.0 (Graph Pad Software, Inc., La Jolla, CA, USA).

[2] = tested on: SK-BR-3 cells; assay: MTT cell viability assay, SK-BR-3; format: cell-based, human; details: SK-BR-3, MTT, 48 h
Procedure: as §1, §2

[3] = tested on: MCF-12A cells (non-tumorigenic human mammary epithelial cells); assay: MTT cell viability assay, MCF-12A; format: cell-based; details: 48 h
Procedure: as §1, §2

[4] = tested on: MDA-MB-231 cells; assay: MTT cell viability assay, MDA-MB-231; format: cell-based, human; details: MDA-MB-231, MTT, 48 h
Procedure: as §1, §2

[5] = tested on: BT-474 cells; assay: cells; format: cell-based, human
Procedure: as §1, with “MDA-MB-231, BT-474, and SK-BR-3 BC cells (ATCC, Manassas, VA, USA) were initially seeded at 1 × 10^4 cells/well (6 replicates/group) in 96-well plates in RPMI-1640 media containing 10% FBS, and allowed to attach overnight.” left out
as §2, with “Similarly,” for “To evaluate the effect of penitrems on growth of the human neuronal Schwann CRL 2765 (ATCC, Manassas, VA, USA), cells were plated at a density of 1 × 10^4 cell per well (6-wells/group) in 96-well culture plates using the ATCC-recommended media (Dulbecco’s Modified Eagle’s Medium, DMEM) and allowed to adhere overnight for growth studies, after which each treatment was added, and cells were maintained for 48 h. Similarly,”

[6] = tested on: TNF-α; assay: Western blot, TNF-α levels in BC cells; format: cell-based, human; details: MDA-MB-231, BT-474, SK-BR-3; 10 µM treatments; vs control
Procedure: (§3) MDA-MB-231, BT-474, SK-BR-3, Schwann CRL-2765, and MCF-12A cells, were plated at a density of 1 × 10^6 cells/100 mm culture plates. MDA-MB-231, BT-474, and SK-BR-3 were plated in RPMI-1640 media supplemented with 10% FBS, Schwann cells CRL-2765 were plated in DMEM media supplemented with 10% FBS [11], and MCF-12A cells were plated in DMEM/F12 supplemented with ingredients described earlier. Cells were allowed to adhere overnight, then washed twice with PBS, and starved in control or treatment in serum-free medium containing 0.5% FBS for 48 h to synchronize the cells in G1 phase. Afterwards, cells were treated with tested penitrems in serum-free defined media for 24 h. At the end of treatment periods, cells were lysed in RIPA buffer (Qiagen Sciences Inc., Valencia, CA, USA). Protein concentration was determined by the BCA assay (Bio-Rad, Hercules, CA, USA). Equivalent amounts of protein (50 µg) were electrophoresed on SDS-polyacrylamide gels. The gels were then electroblotted onto PVDF membranes. These PVDF membranes were then blocked with 2% BSA in 10 mM Tris-HCl containing 50 mM NaCl and 0.1% Tween 20, pH 7.4 (TBST), and then incubated with specific primary antibodies overnight at 4 °C. […] Western blot quantification analysis was done using Image Lab ^TM Software (Bio-Rad, Hercules, CA, USA) for total protein normalization.

[7] = tested on: BK channel subunits α-1 (KCNMA1); assay: Western blot, BK channel expression in BC cells; format: cell-based, human; details: MDA-MB-231, BT-474, SK-BR-3; 10 µM treatments; vs control
Procedure: as §3

[8] = tested on: BK channel subunits α-1 (KCNMA1); assay: Immunocytochemical fluorescence staining of KCNMA1; format: cell-based, human; details: MDA-MB-231 (9.8 µM) and BT-474 (10.3 µM), 24 h, vs vehicle-treated controls
Procedure: Immunocytochemical fluorescent studies were conducted by growing MDA-MB-231 and BT-474 cells mammary cancer cells on 8-chamber culture slides (Becton Dickinson and Company, Franklin Lakes, NJ, USA) at a density of 2 × 10^4 cells/chamber (2 replicates/group), and allowed to attach overnight in complete serum media supplemented with 10% FBS. […] At the end of experiment, cells were washed with pre-cooled PBS, and fixed with acetone, pre-cooled to −20 °C, for 2 min. Fixed cells were then washed with PBS, and blocked with 2% BSA in 10 mM Tris-HCl containing 50 mM NaCl and 0.1% Tween 20, pH 7.4 (TBST) for 1 h at rt. Cells were then incubated with specific primary antibody for BK channel KCNMA1 (1:300) overnight at 4 °C in 2% BSA-TBST. At the end of incubation time, cells were washed five times with pre-cooled PBS, followed by incubation with Alexa-Fluor 594-conjugated secondary antibody (1:5000) in 2% BSA-TBST for 1 h at rt. After final washing for five times with PBS, cells were embedded in Vectashield Mounting Medium with DAPI (Vector Laboratories Inc., Burlingame, CA, USA). Fluorescent images were obtained by using a confocal laser scanning microscope (Carl Zeiss Microimaging Inc., Thornwood, NY, USA). The red color indicates the positive fluorescence staining for BK channel KCNMA1, and the blue color represents MDA-MB-231 cell nuclei counter-stained with DAPI [30]. […]

[9] = tested on: BK channels; design: method as in PMID 27834847, PMID 14593856; details: cited from earlier work
[10] = Homo sapiens, BT-474, MTT, 48 h

`C=C(C)C1OC2CCC3(C)C4(C)c5[nH]c6cc(Cl)c7c8c6c5C(OC(C)(C)C5CC(C(=C)C7)C85O)C4CCC3(O)C23OC3C1OC` (stereo not shown) [Compound 3, 25-O-methylpenitrem A] gave a pIC50 ([1]; Homo sapiens) of 4.32, a pIC50 ([2]; Homo sapiens) of 4.57 and a pIC50 ([3]; Homo sapiens) of 4.10. It also gave a pIC50 ([4]; Homo sapiens) of 4.42 and a pIC50 [5, 10] of 4.65.
For `CS(=O)(=O)CCNCc1ccc(-c2ccc3ncnc(Nc4ccc(OCc5cccc(F)c5)c(Cl)c4)c3c2)o1` [LP, lapatinib, reference compound], the pIC50 ([5]; Homo sapiens, BT-474, single agent) was 6.91.
For Penitrem A [Compound 1], the pIC50 [1] was 4.65, the “total levels of TNF-α” value [6] was “increased total levels of TNF-α” and the “total levels of BK channel subunits α-1 (KCNMA1)” value [7] was “greatest reduction”. The pIC50 [2] was 4.82, the pIC50 [3] was 4.47 and the pIC50 [4] was 5.01. For the same compound, the “total levels of KCNMA1 (immunofluorescence)” value [8] was “remarkable reduction”, the BK channels antagonism [9] was “potent BK channels antagonist at very low molar concentration” and the pIC50 ([5]; BT-474, MTT, 48 h) was 4.99.
With `C=C(C)[C@H]1O[C@H]2CC[C@@]3(C)[C@@](O)(CC[C@H]4[C@@H]5OC(C)(C)[C@H]6C[C@@H]7C(=C)Cc8ccc9[nH]c(c5c9c8[C@@]76O)[C@@]43C)[C@]23O[C@@H]3[C@H]1O` [Compound 2, Penitrem E] the pIC50 ([1]; Homo sapiens) was 4.17, the “total levels of TNF-α” value [6] was “increased total levels of TNF-α in both BT-474 and SK-BR-3 cells” and the “total levels of BK channel subunits α-1 (KCNMA1)” value [7] was “did not cause changes”. The pIC50 ([2]; Homo sapiens) was 4.44, the pIC50 ([3]; Homo sapiens) was 4.36 and the pIC50 ([4]; Homo sapiens) was 4.69. For the same compound, the pIC50 [5, 10] was 4.50.
